{"source": "patent US8178579B2", "about": "“Dioxanes and uses thereof” (President and Fellows of Harvard College, priority 2001, dated 2012)", "key": {"[1]": {"test_system": "microtubules in A549 cells", "test": "microtubule stability to nocodazole, cold or calcium depolymerization and repolymerization", "format": "cell-based, human", "conditions": "tubacin 2 μM, ITSA1 50 μM", "procedure": "Detection of acetylated α-tubulin and acetylated histones by immunofluorescence was performed as described in Example 6 above. For determining microtubule stability, A549 cells were treated as indicated, fixed in glutaraldehyde, and stained for acetylated α-tubulin and total α-tubulin in antibody dilution buffer (ADB, Tris-buffered saline (TBS), 0.15 M NaCl, 0.02 M Tris-Cl, pH 7.4, with 2% bovine serum albumin and 0.1% Triton-X 100). For cold-depolymerization, cells were incubated at 4° C. or 37° C. for an additional 90 minutes before fixation. For calcium depolymerization, cells were incubated at 37° C. for 10 minutes in a microtubule-stabilizing buffer (0.2% NP-40, 5 mM MgCl2, 2 mM EGTA, 2 M glycerol, 100 mM PIPES, pH 6.8) with and without the addition of CaCl2 (2 mM) before glutaraldehyde fixation. For co-localization experiments, biotubacin (50 μM) treated A549 cells were fixed in 3.7% formaldehyde in TBS and processed as for detecting acetylated α-tubulin (See Example 6 above) with biotubacin detected using streptavidin-TR (1:500). HDAC6 was detected using a rabbit polyclonal antibody (1:250-1:750; C.M.G., unpublished data) under the conditions used to detect acetylated α-tubulin (See Example 6 above). Filamentous actin in HT-1080 cells was detected using TR-conjugated phalloidin (1 μg/mL), and depolymerized actin using FITC-conjugated deoxyribonuclease (10 μg/mL), following fixation in 3.7% formaldehyde in TBS. p58 (1:100) in NIH-3T3 cells was detected after fixation in 3.7% formaldehyde in TBS. Images for these experiments were collected on a Zeiss LSM510 confocal scanning laser microscope at the appropriate wavelengths using the accompanying software and processed with Adobe Photoshop. Deconvoluted serial images of TSA and DMSO treated A549 cells were obtained by taking sections (8μ) on a Zeiss Axioskop 2 microscope using an AxioCam camera and the accompanying software. Rat hippocampal neuronal cultures were fixed at room temperature for 15 min in phosphate-buffered saline (PBS) containing 4% paraformaldehyde. […]"}, "[2]": {"test_system": "α-tubulin acetylation in the presence of ITSA1", "conditions": "cited from earlier work"}, "[3]": {"test_system": "zebrafish (Danio rerio) embryos", "test": "phenotypic assay with 16-cell zebrafish embryos", "format": "in vivo", "conditions": "60 μM, 18 h (24 h in FIG. 22B) post-fertilization", "procedure": "To determine the effect of these compounds on whole organism development, a phenotypic assay was performed using 16-cell zebrafish (Danio rerio) embryos (Stockwell et al. Chem. Biol. 1999, 6, 71-83) with 1300 compounds from the 1,3-dioxane library. […] The folded notochord phenotype has also been observed through genetic mutant screens^32 for the gul^m208 and lev^m531 mutations. The 1,3-diol (13) may target these gene products or other proteins involved in the same biological pathway. Dissection of the pathways involved in notochord development may be complemented by small molecule ligands for proteins in those pathways."}, "[4]": {"test_system": "α-tubulin deacetylation", "test": "acetylated α-tubulin in cells (AcTubulin cytoblot, immunofluorescence, Western blot)", "format": "cell-based, human", "conditions": "A549 (also BS-C-1) cells, tubacin/JCWII114, niltubacin/JCWII153 2 μM, TSA 100 nM-4 μM, library ~2-5 μM, 18 h", "procedure": "(§1) A549 cells were seeded at a density of 4,000 cells/50 μl in DMEM+ in white tissue culture-treated 384-well plates (Nalge Nunc) using a Multidrop 384 liquid dispenser (Labsystems). Library small molecules were pinned twice (100-150 nl/pin) from ˜1 mM stock solutions (DMSO) and incubated for 18 hours. For the ITSA1+AcTubulin assay, ITSA1 (50 μM) was added four hours after pin-transfer of library molecules. Media was aspirated with a 16-channel wand. For the acetylated α-tubulin cytoblot (AcTubulin), 40 μl/well of fixation solution (3.7% formaldehyde (1:10 from 37% stock) in Tris-buffered saline (TBS, 0.15 M NaCl, 0.02 M Tris-Cl, pH 7.4) was added and plates incubated for twenty minutes at room temperature. After aspiration, 30 μl 100% methanol (−20° C.) was added and incubated for five minutes at room temperature. After aspirating and washing three times with 90 μl of antibody dilution buffer (ADB, TBS/2% bovine serum albumin, 0.1% TritonX-100) the wells were blocked for twenty minutes in ADB. After aspirating, 20 μl/well of ADB containing anti-acetylated α-tubulin antibody (mouse; 1:1000) and anti-mouse IgG horseradish peroxidase (HRP)-conjugated antibody (1:750) was added and incubated overnight (4° C.). For the anti-acetyl lysine cytoblot (AcLysine), 40 μl/well of fixation solution (95% ethanol/5% acetic acid, −20° C.) was added and plates incubated for five minutes at room temperature. Wells were aspirated, washed, and blocked in ADB as for the AcTubulin protocol. After aspirating, 20 μl/well of ADB containing anti-acetylated lysine (rabbit; 1:375) and anti-rabbit IgG-HRP conjugated antibody (1:750) was added and incubated overnight (4° C.). For the anti-acetylated histone H3 (AcHistH3) and anti-acetylated histone H4 (AcHistH4) cytoblots, cells were fixed, washed, and blocked in ADB as for the AcLysine cytoblot. After aspirating, 20 μl/well of ADB containing anti-acetylated histone H3 antibody (rabbit, 1:500) or anti-acetylated histone H4 antibody (rabbit, 1:500) was added and incubated for two hours at room temperature. Wells were aspirated and washed twice with 80 μl of ADB. After aspirating, 20 μl/well of ADB containing anti-rabbit IgG-HRP conjugated antibody (1:1000) was added and incubated for two hours (room temperature). For the AcTubulin and AcLysine assays, plates were washed three times with TBS before adding 20 μl/well of enhanced chemiluminescent (ECL) mixture. For the AcHistH3 and AcHistH4 assays, plates were washed three times with 80 μl TBS with 1% Triton X-100 and once with 80 μl TBS before adding 20 μl/well of ECL mixture. Plates were read on an Analyst plate reader (LJL Biosystems) with an integration time of 0.1 seconds.\n(§2) 1,3-dioxanes from single polystyrene macrobeads were prepared as 1-2 mM stock solutions in DMSO as described [Hubbert, C., Guardiola, A., Shao, R., Kawaguchi, Y., Ito, A., Nixon, A., Yoshida, M., Wang, X. F., and Yao, T. P. (2002). HDAC6 is a microtubule-associated deacetylase. Nature 417, 455-458]. Bead decoding and structure determination were as described [See for example, Hubbert, C., Guardiola, A., Shao, R., Kawaguchi, Y., Ito, A., Nixon, A., Yoshida, M., Wang, X. F., and Yao, T. P. (2002). HDAC6 is a microtubule-associated deacetylase. Nature 417, 455-458; and Piperno, G., LeDizet, M., and Chang, X. J. (1987). Microtubules containing acetylated alpha-tubulin in mammalian cells in culture. J. Cell Biol. 104, 289-302]. Small molecules (˜2-5 μM) of interest were retested using a sample from the plate of stock solutions by fluorescence microscopy and comparison to the effects of trichostatin (300 nM to 1 μM).\n(§3) A549 cells were seeded at a density of 50,000/200 μl in DMEM+ on the surface of glass coverslips on top of Parafilm in a 10 cm dish and allowed to attach overnight. For detection of acetylated α-tubulin, cells were permeabilized and fixed with 100 mM K-PIPES, pH 6.8, 10 mM EGTA, 1 mM MgCl2, 0.2% triton X-100, 0.2% glutaraldehyde for fifteen minutes. […]"}, "[5]": {"test_system": "histone deacetylation", "test": "acetylated lysine / acetylated histone in cells (AcLysine cytoblot, immunofluorescence, Western blot)", "format": "cell-based, human", "conditions": "A549 (also BS-C-1) cells, tubacin, niltubacin 2 μM, histacin 20 μM, library ~2-5 μM, 18 h", "procedure": "as §1, §2, §3"}, "[6]": {"test_system": "α-tubulin acetylation in the presence of ITSA1", "test": "ITSA1+AcTubulin assay: suppression of induced acetylation by ITSA1", "format": "cell-based, human", "conditions": "ITSA1 50 μM, A549 cells", "procedure": "A549 cells were seeded at a density of 4,000 cells/50 μl in DMEM+ in white tissue culture-treated 384-well plates (Nalge Nunc) using a Multidrop 384 liquid dispenser (Labsystems). Library small molecules were pinned twice (100-150 nl/pin) from ˜1 mM stock solutions (DMSO) and incubated for 18 hours. For the ITSA1+AcTubulin assay, ITSA1 (50 μM) was added four hours after pin-transfer of library molecules. Media was aspirated with a 16-channel wand. […] Plates were read on an Analyst plate reader (LJL Biosystems) with an integration time of 0.1 seconds.\nBromodeoxyuridine labeling and fluorescence-activated cell sorting (FACS) were performed as described (K. M. Koeller et al., Chemistry & Biology, 10 (5) (2003) pp. 397-410). […]"}}, "note": "“Also recorded” adds a separate entry of the source."}
{"smiles": "O=C(c1ccc(Cl)cc1Cl)n1nnc2ccccc21", "note": "[ITSA1, reference compound]", "values": [{"measurement": "polymerization of microtubules after removal of nocodazole", "setting": "[1]", "value": "neither tubacin nor ITSA1 (50 μM; 30 minutes) prevents the repolymerization of microtubules; also recorded: neither tubacin nor ITSA1 prevented the polymerization of microtubules"}, {"measurement": "suppression by ITSA1, stated as known", "setting": "[2]", "value": "suppresses (reduces) the ability of TSA to increase acetylation levels of both α-tubulin and histones"}]}
{"smiles": "[O-][n+]1ccccc1SC[C@@H](O)[C@@H](c1ccccc1)[C@@H](O)c1ccc(CO)cc1", "note": "(racemic) [compound 13, (±)-(1R,2S,3S)-1-[4-(hydroxymethyl)phenyl]-4-[(1-oxido-2-pyridinyl)thio]-2-phenyl-1,3-butanediol]", "values": [{"measurement": "developmental phenotype of zebrafish embryos", "setting": "[3]", "value": "causes a wavy notochord phenotype; also recorded: developed folds in the anterior trunk region of the notochord"}]}
{"smiles": "Nc1ccccc1NC(=O)CCCCCC(=O)Nc1cccc([C@@H]2O[C@H](CN3CCN(Cc4ccccc4)CC3)C[C@H](c3ccc(CO)cc3)O2)c1", "note": "[histacin]", "values": [{"measurement": "effect on tubulin deacetylation / α-tubulin acetylation in cells", "setting": "[4]", "value": "without affecting α-tubulin acetylation levels"}, {"measurement": "effect on tubulin deacetylation / α-tubulin acetylation in cells", "setting": "[4]; listed as 410 F1", "value": "no effect on α-tubulin acetylation"}, {"measurement": "effect on histone deacetylation / lysine or histone acetylation in cells", "setting": "[5]", "value": "increased acetylated histone levels"}, {"measurement": "effect on histone deacetylation / lysine or histone acetylation in cells", "setting": "[5]; listed as 410 F1", "value": "strongly increased lysine acetylation"}, {"measurement": "suppression of the induced acetylation by ITSA1", "setting": "[6]", "value": "cannot be suppressed by ITSA1"}]}
